# Literature values, collected in US11931686B1, “Carbon capture process utilizing inert gas medium to assist thermal desorption” (CARBON CAPTURE INC., priority 2022, dated 2024).
# Test system: not given
# Conditions: Table 1
row,Structure (SMILES),Solubility in Water
1,"CCOC(=O)c1ccccc1 [Ethyl Benzoate, ethyl benzoate]",0.07 g/100 g
2,"C[Si](C)(C)O[Si](C)(C)O[Si](C)(C)O[Si](C)(C)C [MD2M, decamethyltetrasiloxane]",insoluble
3,"Cc1ccccc1C [o-Xylene, o-xylene]",0.02 g/100 g

# Test system: Rat
# Conditions: Rat; Table 1, inert chemical fluids
row,Structure (SMILES),LD50 (Rat)
1,"Cc1ccccc1C [o-Xylene, o-xylene]","3,600 mg/kg"

# Same assay, conditions: Rat; Table 3, alcohols
row,Structure (SMILES),LD50 (Rat)
1,CC(C)CCO [i-Amyl Alcohol],"1,300 mg/kg"

# Same assay, conditions: Rat; Table 4, hydrocarbons
row,Structure (SMILES),LD50 (Rat)
1,CCCCCCCC [Octane],">5,000 mg/kg"
2,c1ccc2c(c1)CCCC2 [Tetralin],"2,860 mg/kg"

# Same assay, conditions: rat, in vivo
row,Structure (SMILES),LD50 (Rat)
1,CCCCO [1-Butanol],790 mg/kg
2,CCCO [1-Propanol],"1,870 mg/kg"
3,CCC(C)O (centres unmarked) [2-Butanol],"2,193 mg/kg"
4,CCC(CC)CO [2-Ethylbutanol],"1,850 mg/kg"
5,CCCCC(CC)CO (centres unmarked) [2-Ethylhexanol],"3,730 mg/kg"
6,CC(C)O [2-Propanol],"3,600 mg/kg"
7,Clc1ccccc1 [Chlorobenzene],">2,000 mg/kg"
8,CCO [Ethanol],"7,340 mg/kg"
9,"CCOC(=O)c1ccccc1 [Ethyl Benzoate, ethyl benzoate]","2,100 mg/kg"
10,CCCCCCC [Heptane],">5,000 mg/kg"
11,"C[Si](C)(C)O[Si](C)(C)O[Si](C)(C)O[Si](C)(C)C [MD2M, decamethyltetrasiloxane]",">2,000 mg/kg"
12,CO [Methanol],"5,628 mg/kg"
13,"CCCCCCCCCCC [Undecane, undecane]","2,000 mg/kg"
14,CC(C)CO [i-Butanol],"2,460 mg/kg"
15,"Cc1cccc(C)c1 [m-Xylene, m-xylene]","5,000 mg/kg"
16,Cc1ccc(C(C)C)cc1 [p-Cymene],"4,750 mg/kg"
